Data set [1] relates to Streptococcus pyogenes S-23. The experiment in a line: Minimum growth inhibiting concentration, Japan Chemotherapeutic Society method. The data set is classed as cell-based. Particulars: S23; Streptococcus pyogenes S-23, Gram +; 5% horse blood added agar medium; read-out: Minimum Growth Inhibiting Concn. The procedure:
(§1) The Antibacterial activity of the compounds of Examples 14, 13, 22b, 21 and 15 was determined in accordance with the method of Japan Chemotherapeutic Society (cf. Nippon Kagaku Ryoho Gakkai Shi, volume 29, number 1, pages 76 to 79, 1981) and the results are reported in Table 1, which follows. | *5% Horse blood added agar medium for sensitivity measurement being used.

The test system of data set [2] is Streptococcus pneumoniae Type I. Described as above. The data set is classed as cell-based. Particulars: Gram +, 5% horse blood added agar medium, read-out: Minimum Growth Inhibiting Concn. The procedure:
as §1

The subject of data set [3] is Bacillus subtilis ATCC 6633. The data set is described as above. The data set is classed as cell-based. Particulars: ATCC6633; Bacillus subtilis ATCC 6633, Gram +; 5% horse blood added agar medium; read-out: Minimum Growth Inhibiting Concn. On the procedure:
as §1

The next data set can be described thus: Acute toxicity. Particulars: mouse, in vivo; oral, groups of ten ddY male mice; read-out: 50% Lethal Doses (LD50). The procedure:
Groups of ten ddY strain male mice (body weights: 20±1 grams) of the test compound were orally administered to determine the LD50. There was […] in which many mice died when the dose was 2000 mg/kg or less.

Data set [4] deals with Staphylococcus aureus 209-PJC. The experiment in a line: Minimum growth inhibiting concentration, Japan Chemotherapeutic Society method. The data set is classed as cell-based. Particulars: Gram +, read-out: Minimum Growth Inhibiting Concn. On the procedure: (§2) The Antibacterial activity of the compounds of Examples 14, 13, 22b, 21 and 15 was determined in accordance with the method of Japan Chemotherapeutic Society (cf. Nippon Kagaku Ryoho Gakkai Shi, volume 29, number 1, pages 76 to 79, 1981) and the results are reported in Table 1, which follows.

For data set [5], the system named is Pseudomonas aeruginosa No. 12. The description is as above. The data set is classed as cell-based. Particulars: Pseudomonas aeruginosa No. 12, Gram -; read-out: Minimum Growth Inhibiting Concn. The procedure: as §2
For data set [6], the system named is Pseudomonas aeruginosa E-2. Described as above. The data set is classed as cell-based. Particulars: E2; Pseudomonas aeruginosa E-2, Gram -; read-out: Minimum Growth Inhibiting Concn. The procedure: as §2
Data set [7] concerns Pseudomonas maltophilia ATCC 13637. The description is as above. Particulars: Stenotrophomonas maltophilia, ATCC13637; Pseudomonas maltophilia ATCC 13637, Gram -; read-out: Minimum Growth Inhibiting Concn. The data set is classed as cell-based. The procedure: as §2
Data set [8] deals with Acinetobacter calcoacelicus 54. Described as above. The data set is classed as cell-based. Particulars: Acinetobacter calcoacelicus 54, Gram -; read-out: Minimum Growth Inhibiting Concn. On the procedure:
as §2

The subject of data set [9] is Klebsiella pneumoniae K-1966. The data set is described as above. The data set is classed as cell-based. Particulars: K1966; Klebsiella pneumoniae K-1966, Gram -; read-out: Minimum Growth Inhibiting Concn. The procedure: as §2
The subject of data set [10] is Serracia marcescens IFO 3736. The description is as above. The data set is classed as cell-based. Particulars: Serracia marcescens IFO 3736, Gram -; read-out: Minimum Growth Inhibiting Concn. On the procedure:
as §2

Data set [11] concerns Micrococcus luteus ATCC 9341. The data set is described as above. The data set is classed as cell-based. Particulars: ATCC9341; Micrococcus luteus ATCC 9341, Gram +; read-out: Minimum Growth Inhibiting Concn. On the procedure:
as §2

Data set [12] relates to Staphylococcus aureus Smith. The description is as above. Particulars: Gram +, read-out: Minimum Growth Inhibiting Concn. The data set is classed as cell-based. On the procedure:
as §2

The next data set has as its system Proteus mirabilis 181. Described as above. Particulars: Proteus mirabilis 181, Gram -; read-out: Minimum Growth Inhibiting Concn. The data set is classed as cell-based. On the procedure: as §2
The next data set deals with Proteus vulgaris DX-19. The data set is described as above. The data set is classed as cell-based. Particulars: DX19; Proteus vulgaris DX-19, Gram -; read-out: Minimum Growth Inhibiting Concn. On the procedure:
as §2

Data set [13] concerns Pseudomonas cepacia ATCC 25416. The data set is described as above. The data set is classed as cell-based. Particulars: Burkholderia cepacia, ATCC25416; Pseudomonas cepacia ATCC 25416, Gram -; read-out: Minimum Growth Inhibiting Concn. On the procedure: as §2
For data set [14], the system named is Listeria monocytogenes RIMD 1205020. Described as above. The data set is classed as cell-based. Particulars: RIMD1205020; Listeria monocytogenes RIMD 1205020, Gram +; read-out: Minimum Growth Inhibiting Concn. On the procedure:
as §2

Data set [15] deals with Escherichia coli KC-14. Described as above. The data set is classed as cell-based. Particulars: KC14; Escherichia coli KC-14, Gram -; read-out: Minimum Growth Inhibiting Concn. On the procedure: as §2
Data set [16] deals with Escherichia coli NIHJ JC-2. The description is as above. The data set is classed as cell-based. Particulars: NIHJJC2; Escherichia coli NIHJ JC-2, Gram -; read-out: Minimum Growth Inhibiting Concn. The procedure: as §2
The subject of data set [17] is Alcaligenes faecalis ATCC 8750. The data set is described as above. Particulars: ATCC8750; Alcaligenes faecalis ATCC 8750, Gram -; read-out: Minimum Growth Inhibiting Concn. The data set is classed as cell-based. On the procedure:
as §2

Data set [18] deals with Pseudomonas aeruginosa E-2. The experiment in a line: Mouse intraperitoneal infection, survival after one week. Particulars: E2, po; Pseudomonas aeruginosa E-2, 2 × 10^5 per mouse; one dose per os 2 h after infection; Behrens-Karber. The data set is classed as in vivo, ddY strain mice. On the procedure: (§3) ddY--Strain mice (male; body weight 20±1 grams) of SPF were innoculated with the bacteria set forth in Table 2 by administration of a supension of the bacterial in 4% mucin solution into the abdominal cavity. A compound of the invention was given one time per os two hours after the infection, and, from the survival rate after one week. 50% effective doses (ED50) were calculated by the Behrens-Karber method.

Data set [19] deals with Escherichia coli KC-14. The description is as above. The data set is classed as in vivo, ddY strain mice. Particulars: KC14, po; Escherichia coli KC-14, 5 × 10^4 per mouse; one dose per os 2 h after infection. On the procedure:
as §3

In data set [20] the test system is Klebsiella pneumoniae K-1966. The description is as above. Particulars: K1966, po; Klebsiella pneumoniae K-1966, 3 × 10^3 per mouse; one dose per os 2 h after infection. The data set is classed as in vivo, ddY strain mice. On the procedure: as §3
Data set [21] concerns Acimetobacter calcoaceticus. Described as above. The data set is classed as in vivo, ddY strain mice. Particulars: po, 1 × 10^7 per mouse, one dose per os 2 h after infection. The procedure: as §3

Structures are written as SMILES. In brackets after ≈: the same amount, converted by molar mass.

As usually defined, the LD50 is the dose expected to kill half of the subjects tested. For orientation: ED50 means the dose that gives a 50% effect, or the effect in half of the subjects. Regarding `CN1CCN(c2cc3c(cc2F)c(=O)c(C(=O)O)c2sccn23)CC1` [Example 14, 7-fluoro-8-(4-methyl-1-piperazinyl)-5-oxo-5H-thiazolo(3,2-a)-quinoline-4-carboxylic acid], the MIC in data set [1] is 0.2 µg/mL (≈ 0.553 µM); in [2], 0.2 µg/mL (≈ 0.553 µM); in data set [3], 0.0063 µg/mL (≈ 0.0174 µM); in data set [4] it was 0.1 µg/mL (≈ 0.277 µM); in [5] it was 0.39 µg/mL (≈ 1.08 µM); in [6] it was 0.39 µg/mL (≈ 1.08 µM). For the same molecule, the MIC in data set [7] was 0.025 µg/mL (≈ 0.0692 µM); in data set [8] it was 0.39 µg/mL (≈ 1.08 µM); in data set [9] it was 0.1 µg/mL (≈ 0.277 µM); in data set [10] it was 0.39 µg/mL (≈ 1.08 µM); in data set [11], 0.78 µg/mL (≈ 2.16 µM); in [12], 0.05 µg/mL (≈ 0.138 µM). For the same molecule, the MIC in the data set with Proteus mirabilis 181 worked out at 0.013 µg/mL (≈ 0.036 µM); with Proteus vulgaris DX-19 it was 0.0063 µg/mL (≈ 0.0174 µM); in data set [13] it was 0.78 µg/mL (≈ 2.16 µM); in data set [14], 1.56 µg/mL (≈ 4.32 µM); with Escherichia coli KC-14 [15], 0.013 µg/mL (≈ 0.036 µM); in [16], 0.1 µg/mL (≈ 0.277 µM). For the same molecule, the MIC in data set [17] stood at 0.78 µg/mL (≈ 2.16 µM). In addition, the LD50 in “Acute toxicity” is more than 2000 mg/kg. Besides, the results for the ED50 (in data set [18]; with Escherichia coli KC-14 [19]) were 16 mg/kg and 1.5 mg/kg, respectively.

Consider `O=C(O)c1c(=O)c2cc(F)c(N3CCNCC3)cc2n2ccsc12` [Example 13, 7-fluoro-5-oxo-8(1-piperazinyl)-5H-thiazolo(3,2-a)quinoline-4-carboxylic acid], for which the MIC in data set [1] is 0.1 µg/mL (≈ 0.288 µM); in data set [2] it was 0.1 µg/mL (≈ 0.288 µM); in data set [3], 0.0063 µg/mL (≈ 0.0181 µM); in data set [4], 0.025 µg/mL (≈ 0.072 µM); in data set [5], 0.2 µg/mL (≈ 0.576 µM); in data set [6], 0.2 µg/mL (≈ 0.576 µM). The MIC in [7] was 0.5 µg/mL (≈ 1.44 µM); in [8], 0.78 µg/mL (≈ 2.25 µM); in data set [9], 0.025 µg/mL (≈ 0.072 µM); in data set [10], 0.2 µg/mL (≈ 0.576 µM); in [11] it was 0.78 µg/mL (≈ 2.25 µM); in data set [12], 0.05 µg/mL (≈ 0.144 µM). The MIC was determined as 0.0063 µg/mL (≈ 0.0181 µM) in the data set on Proteus mirabilis 181; 0.013 µg/mL (≈ 0.0374 µM) in the data set on Proteus vulgaris DX-19; 0.78 µg/mL (≈ 2.25 µM) in [13]; 0.2 µg/mL (≈ 0.576 µM) in data set [14]; 0.0063 µg/mL (≈ 0.0181 µM) with Escherichia coli KC-14 [15]; 0.05 µg/mL (≈ 0.144 µM) in data set [16]. The MIC in data set [17] worked out at 0.78 µg/mL (≈ 2.25 µM). Besides, the LD50 in “Acute toxicity” was more than 2000 mg/kg.

Turning to `C=CCN1CCN(c2cc3c(cc2F)c(=O)c(C(=O)O)c2sccn23)CC1` [Example 15, 8-(4-Allyl-1-piperazinyl)-7-fluoro-5-oxo-5H-thiazolo(3,2-a)-quinoline-4-carboxylic acid], the MIC in data set [1] stood at 0.1 µg/mL (≈ 0.258 µM); in data set [2] it was 0.39 µg/mL (≈ 1.01 µM); in [3] it was 0.0063 µg/mL (≈ 0.0163 µM); in data set [4] it was 0.025 µg/mL (≈ 0.0645 µM); in data set [5] it was 0.78 µg/mL (≈ 2.01 µM); in data set [6] it was 1.56 µg/mL (≈ 4.03 µM). Further, the MIC in data set [7] is 0.0063 µg/mL (≈ 0.0163 µM); in data set [8], 0.39 µg/mL (≈ 1.01 µM); in data set [9], 0.05 µg/mL (≈ 0.129 µM); in data set [10], 0.39 µg/mL (≈ 1.01 µM); in data set [11], 1.56 µg/mL (≈ 4.03 µM); in data set [12], 0.013 µg/mL (≈ 0.0336 µM). For the same molecule, the MIC in the data set on Proteus mirabilis 181 is 0.2 µg/mL (≈ 0.516 µM); in the data set with Proteus vulgaris DX-19 it was 0.05 µg/mL (≈ 0.129 µM); in [13] it was 1.56 µg/mL (≈ 4.03 µM); in data set [14], 0.39 µg/mL (≈ 1.01 µM); with Escherichia coli KC-14 [15], 0.05 µg/mL (≈ 0.129 µM); in data set [16] it was 0.2 µg/mL (≈ 0.516 µM). In data set [17], the MIC stood at 0.78 µg/mL (≈ 2.01 µM). Also, in the data set “Acute toxicity”, the LD50 is more than 2000 mg/kg. The ED50 in data set [18] was 10.7 mg/kg; in data set [20] it was 3.3 mg/kg; in the data set with Escherichia coli KC-14 [19], 2 mg/kg; in [21], more than 35 mg/kg.

In the case of `Cc1csc2c(C(=O)O)c(=O)c3cc(F)c(N4CCNCC4)cc3n12` [Example 21, 7-fluoro-1-methyl-5-oxo-8-(1-piperazinyl)-5H-thiazolo(3,2-a)-quinoline-4-carboxylic acid], the MIC came to 0.1 µg/mL (≈ 0.277 µM) in data set [1]; 0.2 µg/mL (≈ 0.553 µM) in data set [2]; 0.0063 µg/mL (≈ 0.0174 µM) in data set [3]; 0.025 µg/mL (≈ 0.0692 µM) in [4]; 0.39 µg/mL (≈ 1.08 µM) in [5]; 0.39 µg/mL (≈ 1.08 µM) in data set [6]. Also, the MIC is 0.013 µg/mL (≈ 0.036 µM) in data set [7]; 0.2 µg/mL (≈ 0.553 µM) in data set [8]; 0.013 µg/mL (≈ 0.036 µM) in data set [9]; 0.2 µg/mL (≈ 0.553 µM) in data set [10]; 0.39 µg/mL (≈ 1.08 µM) in [11]; 0.013 µg/mL (≈ 0.036 µM) in data set [12]. In addition, the MIC was found to be 0.05 µg/mL (≈ 0.138 µM) with Proteus mirabilis 181; 0.0016 µg/mL (≈ 0.00443 µM) in the data set with Proteus vulgaris DX-19; 0.2 µg/mL (≈ 0.553 µM) in [13]; 0.2 µg/mL (≈ 0.553 µM) in [14]; 0.0063 µg/mL (≈ 0.0174 µM) with Escherichia coli KC-14 [15]; 0.025 µg/mL (≈ 0.0692 µM) in data set [16]. Besides, the MIC in data set [17] is 0.78 µg/mL (≈ 2.16 µM). Also, in the data set “Acute toxicity”, the LD50 is more than 2000 mg/kg.
